Key:
human recombinant CyPA = human recombinant CyPA (Homo sapiens, UniProt P62937); assay: Rotamase (PPIase) inhibition, chymotrypsin-coupled cuvette assay, human recombinant CyPA; assay type: biochemical; conditions: Table A, value without asterisk: human recombinant CyPA
Text: A number of substrates for rotamase are known in the art or can be derived from those known. Typically, the substrate contacts a sample containing a protein with rotamase activity and the conversion of the substrate is detected after a period of time. The method for detecting conversion of the substrate will vary with the particular substrate chosen. One method has been termed the Ki test (See Harding, et al., Nature, 341:758-760 (1989); and Holt et al., J. Am. Chem. Soc., 115:9923-9938). The cis-trans isomerization of an alanine-proline bond in a model substrate, N-succinyl-Ala-Ala-Pro-Phe-p-nitroanilide (SEQ ID NO: 1), is monitored spectrophotometrically in a chymotrypsin-coupled assay. The action of chymotrypsin releases p-nitroaniline from only the trans form of the substrate. The amount of p-nitroaniline can be monitored in a spectrophotometer, for example. Other methods of detecting the presence of p-nitroaniline can also be used. The inhibition of this reaction caused by different concentrations of inhibitor is determined and the data are analyzed as a change in first-order rate constant as a function of inhibitor concentration, which yields the Ki value.
The following were added to a plastic cuvette: 950 μl of ice cold assay buffer (25 mM HEPES, pH 7.8, 100 mM NaCl), 10 μL of CyP A (2.5 μM in 10 mM Tris-Cl pH 7.5, 100 mM NaCl, 1 mM dithiothreitol), 25 μL of chymotrypsin (50 mg/ml in 1 mM HCl), and 10 μL of test compound, at various concentrations, in dimethyl sulfoxide. The reaction was initiated by the addition of 5 μL of substrate (succinyl-Ala-Phe-Pro-Phe-para-nitroanilide (SEQ ID NO: 1), 5 mg/mL in 470 mM LiCl in trifluoroethanol). The absorbance at 390 nm versus time was monitored for 90 seconds using a spectrophotometer and the rate constants were determined from the absorbance versus time data files.
The IC50 values which were obtained for representative compounds are given in the following Table A, and refer to the concentration that inhibits 50% of the rotamase activity in a sample.
(§1) The Cyclophilin utilized was a human recombinant CyPA, [Yoo et al., J. Mol. Biol., 269 (1997) 780-95].

[1] = biological target: T1, recombinant rat CyPA-GST fusion protein (Rattus norvegicus, UniProt P10111); assay: Rotamase (PPIase) inhibition, chymotrypsin-coupled cuvette assay, rat CyPA-GST fusion protein; assay type: biochemical; conditions: Table A, value with asterisk: recombinant rat CyPA-GST fusion protein
T1 construct: made in house; host or cells: E. coli BL21

[2] = biological target: T1, recombinant rat CyPA-GST fusion protein; assay: Semiautomated microtiter plate assay of rotamase activity inhibition, rat CyPA-GST fusion protein; assay type: biochemical; conditions: Table B, value with asterisk: recombinant rat CyPA-GST fusion protein
Experimental: as §1
The resulting fragment (573 base pairs) was cloned into pCRII and amplified. The CyP sequence was cut out with Sma1 and EcoR1 and cloned into the Sma1/EcoR1 sites in pGEX2TK (Pharmacia). This plasmid was transformed into BL21 E. coli cells for expression of the GST-CyPA fusion protein.
Rotamase inhibition was determined using a semiautomated microtiter plate assay modification of the above described assay [see Küllertz et al., Clin. Chem. 44, 502-508 (1998)]. All dilutions of CyPA, peptide substrate, and chymotrypsin were made in 35 mM ice-cold HEPES buffer. Fifty μL of CyPA solution is added to 50 μL of the peptide substrate solution (Phe-Pro-Phe p-nitroanilide, 0.16 mg/ml) in a glass microtiter well plate (the concentration of human recombinant CyP being adjusted so that the reaction rate is increased by a factor of 3 as compared to an uncatalyzed control reaction wherein the peptide substrate is degraded by chymotrypsin alone, in the absence of CyPA and test compound). Using a Beckman Multimek™ 96 automated 96-channel pipettor, 5 μL of test compound solution, or a DMSO blank, were added to each well for a 30 minute preincubation at 4° C. One hundred μL of chymotrypsin solution (1 mg/mL) were added to each well and the absorbance at 390 nm versus time was monitored for 9-10 minutes using a BioRad Ultramark plate reader maintained at 4° C. and the rate constants were determined from the absorbance versus time data files.
IC50 values which were obtained for representative compounds are presented in the following Table B. The cyclophilin utilized was a human recombinant CyPA. […] While CyP A was used in these examples, other CyP proteins can be substituted.

[3] = tested on: SMI-32 immunoreactive neurons of lumbar spinal cord slices; assay: Neuroprotection assay in spinal cord slice preparations (THA-induced cell death); assay type: cell-based, Sprague-Dawley rat; conditions: THA 200 μM + compound 10 μM
Experimental: All cultures were derived from postnatal day 8 (P8) Sprague-Dawley rat lumbar spinal cord slices of 325 micrometer thickness, prepared using a commercially available McIlwain tissue chopper. Each experiment consisted of two 6-well plates with 5 slices from 4 different animals per well. Media changes were performed every 3 to 4 days. Cultures were treated with THA [L(−)-threo-3-hydroxyaspartic acid; Tocris Cookson Inc., Ballwin, Mo.] at 200 μM+compound (10 μM) after one week in culture. The control was an untreated sample with 0.1% DMSO as vehicle. The THA control was a THA treated sample with 0.1% DSMO as vehicle. Two wells were used per condition. One media change with new THA and compounds was performed. […]
Slices were permeabilized with 100% cold methanol for 10 minutes, subsequently washed 3×in 0.1M phosphate buffer and transferred to staining wells. […] Quantification of surviving neurons was performed on a Zeiss Axiovert microscope. Neuronal survival was determined by observing an intact neuronal cell body with processes located ventrally of the central canal in each hemisphere. […] Each hemisphere was counted individually. The statistics were performed with StatView™ software on a minimum of three different experiments per condition and significance was determined as compared to THA control. […]

T1 sequence (P10111 2-164): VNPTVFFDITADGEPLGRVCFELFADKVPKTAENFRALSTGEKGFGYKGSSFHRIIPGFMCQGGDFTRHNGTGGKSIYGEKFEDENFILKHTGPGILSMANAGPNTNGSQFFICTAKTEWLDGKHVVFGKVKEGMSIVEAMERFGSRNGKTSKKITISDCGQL
human recombinant CyPA, sequence (P62937 whole entry): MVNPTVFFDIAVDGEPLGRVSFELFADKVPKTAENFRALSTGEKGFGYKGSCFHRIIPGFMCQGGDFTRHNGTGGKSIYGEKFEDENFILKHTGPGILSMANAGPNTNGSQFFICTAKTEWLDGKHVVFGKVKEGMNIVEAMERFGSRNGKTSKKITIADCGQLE

O=C(Nc1cc(OCc2cccc3ccccc23)ccc1Br)c1cccc(C(F)(F)F)c1 [Compound 34, N-[2-bromo-5-(naphthylmethoxy)phenyl][3-(trifluoromethyl)phenyl]formamide]
IC50 (human recombinant CyPA): 11.7 µM
IC50 [1]: 12 µM
IC50 [2]: 9.72 µM
melting point: 125 to 127 °C

O=C(Nc1ccc(Cl)c(Cl)c1)c1cc(OCc2ccccc2)cc(C(=O)Nc2ccc(Cl)c(Cl)c2)c1 [Compound 43]
IC50 [1]: 0.377 µM
IC50 [2]: 0.287 µM
protection from THA-induced cell death [3]: complete protection
SMI-32 immunoreactive neurons per ventral hemisphere ([3]; untreated control 26.4±4.2, THA control 18.97±2.04 (mean±standard error)): 28.14±2.4 cells/ventral hemisphere

From patent publication US6656971B2, “Trisubstituted carbocyclic cyclophilin binding compounds and their use” (Guilford Pharmaceuticals Inc., priority 2001, dated 2003)
